Test results published in patent US20050282745A1, “Non-mammalian GnRH analogs and uses thereof in regulation of fertility and pregnancy” (priority 2001, published 2005).
Non-standard residues stand in square brackets, D forms with d. Residues, ends and D or L forms follow the SMILES beside them. pGlu = O=C1CC[C@@H](C(=O)O)N1; azaGly = NNC(=O)O

Key:
baboon granulosa cells = test: Baboon granulosa cell culture, progesterone release; assay type: cell-based
Source text: The biopotency of chicken II GnRH analogs (SEQ ID NO: 2) in the regulation of baboon ovarian function was studied. The effect of mammalian and chicken II GnRH analogs (SEQ ID NO: 2) on ovarian progesterone release was studied using granulosa cell cultures. The dose-related action of a stable analog of chicken II GnRH (SEQ ID NO: 2) on progesterone production was defined using baboon granulosa cell cultures. After a two hour basal study period, the medium was supplemented with either Buserilin (SEQ ID NO: 10) (10^−7) or a chicken II GnRH analog (SEQ ID NO: 2) (10^−9, 10^−8, 10^−7, 10^−6 M) leaving four control wells. […] This inhibition was sustained after 48 hours of treatment. […] In addition, the action of the analog on three different stromal and three different epithelial endometrial primary cell lines (after 3-5 passages) has been studied and PGE2 determined as indicated in FIG. 31.

human sperm = test: Human sperm motility in vitro; assay type: cell-based
Description: Normal human sperm ([…]) were obtained with seminal plasma and the motility of the sperm was assessed microscopically. Both the fraction of motile sperm and the forward sperm motion were assessed. These parameters were measured just prior to a 1:5 dilution with phosphate buffered saline containing 0 to 200 nM chicken II GnRH analog (SEQ ID NO: 2). The motility and motion of the sperm were assessed at 2, 30, 60, 90, 120 and 180 minutes after incubation at 37 C. […] By 180 minutes the motility of the control had fallen to that of all the treated sperm.

[1] = molecular target: chorionic peptidase-1 (C-ase-1); test: C-ase-1 enzyme activity assay, competition for degradation of GnRH; settings: competition for degradation of mammalian GnRH, Example III
Description: Using the incubation system developed for the C-ase-1 activity, the degradation of each analog was tested. […] These studies were done using the C-ase-1 enzyme activity assay as described previously. […] The product formed was calculated by subtraction, and its inverse plotted against the inverse of the original substrate concentrations to determine the nature of the competition. The Ki was to be determined by plotting the inverse of the product that formed verses the inhibitor used.
The concentration of the product of the degraded GnRH was quantified by subtracting the remaining mammalian GnRH from the starting concentrations of mammalian GnRH. […] The Ks for the degradation of mammalian GnRH was calculated from the x axis intercept using Lineweaver-Burke double reciprocal plot of the concentration of the product formed versus the concentration of the substrate used.
The reaction was stopped by heating at 85° C. for 10 minutes. The remaining GnRH was determined using a specific radioimmunoassay. The formation of product, i.e., the N-terminal nonapeptide of GnRH, was calculated by subtraction and its inverse was plotted versus the inverse of the initial substrate to determine the Ks of the reaction. […] The relative potency of each analog was compared.
Using the incubation system developed for the C-ase-1 activity, the degradation of each analog was studied. […] The inverse of the product was plotted against the inverse of the original substrate concentrations to determine Ks of the competition. The Ki was determined by plotting the inverse of the product formed verses the inhibitor used.

[2] = test system: baboon uterine tissue GnRH receptor; test: Baboon uterine tissue GnRH receptor binding
Source text: These chicken II GnRH analogs (SEQ ID NO: 2) may have particular applicability for regulation of implantation and in uterine tissue conditions, such as endometriosis, abnormal uterine bleeding, and leiomyomas. Thus, high affinity receptors for chicken II GnRH analogs (SEQ ID NO: 2) have been defined in baboon ovary and uterus tissues.

[3] = test system: human term placental explants; test: Static explant culture, release of hCG, progesterone, PGE2; assay type: cell-based
Source text: The biological activity of the newly synthesized non-mammalian GnRH analogs was studied using a static implant culture system. This system allows for inexpensive extended activity studies. Mammalian GnRH action on the human placenta release of hCG, progesterone and prostaglandins were defined using this system. Replicate cultures were studied, thus allowing for comparison of different doses of each non-mammalian GnRH analog to mammalian GnRH (SEQ ID NO: 5), as well as direct competition assays. […] These studies were repeated using different human placentas. Siler-Khodr T M, Khodr G S, Valenzuela G, Rhode J 1986 Gonadotropin-releasing hormone effects on placental hormones during gestation: II. Progesterone, estrone, estradiol and estriol. Biol Reprod 34:255-264; Siler-Khodr T M, Khodr G S, Valenzuela G, Rhode J 1986 Gonadotropin-releasing hormone effects on placental hormones during gestation: 1 Alpha-human chorionic gonadotropin, human chorionic gonadotropin and human chorionic somatomammotropin. Biol Reprod 34:245-254; Siler-Khodr T M, Khodr G S, Valenzuela G, Harper J, Rhode J 1986 GnRH effects on placental hormones during gestation. 111 Prostaglandin E, prostaglandin F, and 13, 14-dihydro-15-keto-prostaglandin F. Biol Reprod 35:312-319.
In these and additional studies, an explant culture system was used to determine the effect of mammalian GnRH (SEQ ID NO: 5), chicken II GnRH (SEQ ID NO: 6), or the D-Arg(6)-chicken II GnRH-aza-Gly(10)-amide analog (SEQ ID NO: 2) on the release of the hCG, progesterone, and prostaglandin E2. Human term placentas were dissected free of membranes, minced into fragments of 5 mm, rinsed in medium, and a total weight of ˜100 mg (20 explants) was placed on a sterile filter paper resting on an organ culture grid such that they touched the surface of the culture medium, but were not immersed in it. The medium contained penicillin, streptomycin, and fungizone at 100 U/mL, 100 μg/mL, and 2.5 μg/mL respectively with and without varying doses of GnRH isoforms or analogs was added to each Petri dish. Triplicate chambers for each media were made and incubated at 37 C in a humidified chamber with an atmosphere of 5% CO2 and 95% air. Spent media were collected and replaced after 2 hours, 24 hours, and 48 hour of culture and stored frozen at −20° C. until assayed for hormones. HCG, progesterone, and PGE2 were measured using specific double antibody procedures as described previously. The chicken II GnRH analog (SEQ ID NO: 2) was studied using four different human term placentas, and the native chicken II GnRH isoform was also studied using one human term placenta. Gibbons J M, Mitnick M, Chieffo V 1975 In vitro biosynthesis, of TSH- and LH-releasing factors by the human placenta. Am J Obstet Gynecol 121:127-131.

[4] = test system: human granulosa cells receptor; test: Human granulosa cell receptor binding
Source text: Due to the limited number of cells it was not possible to precisely define the affinity of this receptor.

For N=C(N)NCCC[C@@H](NC(=O)[C@H](Cc1c[nH]cn1)NC(=O)[C@H](CO)NC(=O)[C@H](Cc1c[nH]c2ccccc12)NC(=O)[C@H](Cc1c[nH]cn1)NC(=O)[C@@H]1CCC(=O)N1)C(=O)N[C@@H](Cc1c[nH]c2ccccc12)C(=O)N[C@@H](Cc1ccc(O)cc1)C(=O)N1CCC[C@H]1C(=O)NNC(N)=O [D-Arg(6)-chicken II GnRH-aza-Gly(10)-amide] ([pGlu]HWSH[dR]WYP[azaGly]-NH2), the “progesterone release, of untreated controls” value (baboon granulosa cells; 10^−8M, within 24 hours) was 31%, the “effect on progesterone release, in words” value (baboon granulosa cells; chicken II analog 10^−9 to 10^−6 M, Buserelin 10^−7) was “dose-related inhibition of progesterone release” and the “concentration of maximal inhibition of progesterone release” value (baboon granulosa cells; within 24 hours) was 10^−8 M. The “forward motion of remaining motile sperm” value (human sperm) was “maintained a high grade”, the “time until inhibition of motility” value (human sperm; 2 nM) was 30 min and the sperm motility (human sperm; 20 to 200 nM) was “initially inhibited”. The Ki [1] was > 400 nM, the “binding affinity, in words” value [2] was “high binding affinity” and the “progesterone release at higher concentrations” value [3] was “also inhibited”. For the same molecule, the “effect on hCG at higher concentrations” value ([3]; 1-9 μM) was “inhibition of hCG”, the PGE2 release ([3]; 2 and 24 hours) was “not significantly changed” and the “hCG release after 2, 24 and 48 hours of treatment” value ([3]; P<0.05) was “significant dose-related inhibition”. The “stimulation of hCG” value ([3]; first two hours, lowest concentration 250 nM) was “as much as a three fold stimulation”, the “hCG in presence of exogenous GnRH” value ([3]; three placentas, later studies) was “inhibition of hCG” and the receptor binding [4] was “receptor binding for the GnRH analog was observed”.
